Results taken from US20200163995A1, “PHAR[…] AND USES THEREOF” (Johnpro Biotech Inc., priority 2017, published 2020).
Like-named read-outs stand apart in the source and are kept apart here.

Columns and labels:
[1] = test system: cancer cells; assay: Resistance of drug-treated cancer cells to chemotherapy and radiation therapy (data not shown); assay type: cell-based
Excerpt: (§1) In this example, cancer cells were first treated with various types of anti-cancer drugs, before been subject to the treatment of NK92MI-CEA cells.

[2] = test system: CEA expression on cancer cells; assay: Determination of CEA expression on cancer cells by flow cytometry after drug treatment; assay type: cell-based, Human; conditions: data not shown
Description: The expression level of CEA on cancer cells were determined by flow cytometry. Cancer cells were stained with the human CEA-specific antibody followed by the analysis of flow cytometry. The fluorescence intensities of at least 10^5 cells were recorded and analyzed by software. Geometric mean was chosen as mean fluorescence intensity (MFI).
as §1

[3] = test system: HCT116 cells
Description: In this experiment, the cancer cells (i.e., HCT116 or WiDr cells) and the NK cells (i.e., NK92MI or NK92MI-CEA cells) respectively served as the target and effector cells. In brief, the target cells were co-incubated with the effector cells at various effector/target ratios (E/T), including 10:1, 5:1, 1:1, and 0.5:1, in a round-bottom 96-well culture plate. After incubating at 37° C. for 24 hours, 50 μl of the supernatant was isolated and mixed with 50 μl of CYTOTOX 96® Reagent in a flat-bottom 96-well enzymatic assay plate. The mixture was incubated at room temperature for 30 minutes followed by adding 50 μl stop solution (H2SO4) to stop the reaction. The absorbance was measured at 490 nm. The percentage of cytotoxicity for each effector:target cell ratio was calculated by the equation of,
(Experimental−culture medium background)−(Effector cell spontaneous release−culture medium background)−(Target spontaneous release−culture medium background)/(Target maximum release−volume correction control−Target spontaneous release−culture medium background)×100.

[4] = test system: HCT116 cells; assay: 5-fluorouracil IC50 in HCT116 cells alone or co-treated with sodium butyrate or 5-azacytidine; assay type: cell-based, Human; conditions: for induction of drug resistance (5-fluorouracil) in cancer cells: HCT116 and WiDr cells, co-treatment with 5-fluorouracil 72 hours, sodium butyrate 0.1 mM, 5-azacytidine 1 μM
Description: (§2) Human colon cancer cell line LS174T (ATCC® CL-188™) and WiDr cells (ATCC CCL-218™) were maintained in alpha modification of Eagle's minimum essential medium (α-MEM) containing 1.5 g/L sodium bicarbonate and 10% fetal bovine serum (FBS). HCT116 cells (ATCC® CCL-247™) were cultured in McCoy's 5A medium containing 1.5 g/L sodium bicarbonate, 4.5 g/L glucose, 10 mM HEPES, 1.0 mM sodium pyruvate and 10% FBS. The NK92MI and NK92MI-CEA cells were cultured in α-MEM supplemented with 1.5 g/L sodium bicarbonate, 0.2 mM inositol, 0.02 mM folic acid, 0.01 mM 2-mercaptoethanol, 10% FBS and 12.5% horse serum. All cells were incubated at 37° C. in a humidified incubator with 5% CO2.
(§3) HCT116 and WiDr cells were co-treated with sodium butyrate (0.1 mM) or 5-azacytidine (1 μM) and different concentration of 5-fluorouracil (1.2, 2.4, 4.8, 9.6, and 19.2 μM) for 72 hours.

[5] = test system: WiDr cells; assay: 5-fluorouracil IC50 in WiDr cells alone or co-treated with sodium butyrate or 5-azacytidine; assay type: cell-based; conditions: Homo sapiens, 72 hours, co-treatment sodium butyrate 0.1 mM or 5-azacytidine 1 μM, three independent experiments, read-out: IC50 of 5-fluorouracil (μM) Mean ± SD
Description: as §2, §3

[6] = test system: serum circulating CEA (cCEA); assay: Serum circulating CEA (ELISA) in WiDr tumor-bearing SCID mice; assay type: in vivo; conditions: FIG. 4C, control group 520 pg/ml
[7] = test system: WiDr cells; assay: WiDr xenograft in SCID mice, tumor volume; assay type: in vivo; conditions: SCID mice with WiDr tumors
Description: 2×10^6 WiDr cells were subcutaneously implanted on the back of 9-weeks-old SCID mice. When tumors reached a volume of 100-200 mm^3, the mice were intraperitoneally administered with 200 mg/kg sodium butyrate for 5 consecutive days. Then, the mice were assigned into five groups: (1) control group, in which the mice were orally administrated with PBS every day, and intraperitoneally administrated with PBS every 4 days; (2) NaB group, in which the mice were orally administrated with 5 g/kg sodium butyrate every day, and intraperitoneally administrated with PBS every 4 days; (3) NK92MI group, in which the mice were orally administrated with PBS every day, and intraperitoneally administrated with NK92MI cells every 4 days; (4) NK92MI-CEA group, in which the mice were orally administrated with PBS every day, and intraperitoneally administration with NK92MI-CEA cells every 4 days; and (5) NK92MI-CEA+NaB group, in which the mice were orally administration with 5 g/kg sodium butyrate every day, and intraperitoneally administration with NK92MI-CEA every 4 days. Tumor volume of the mice was measured every 2-3 days, and tumor volumes on were calculated using the formula: length×(width)^2÷2 (*p<0.05). […]
The in vivo anti-tumor activity of NK92MI-CEA cells was evaluated in this example. […]

SMILES | resistance of cancer cells to chemotherapy and radiation therapy [1] | CEA expression on cancer cells [2] | enhancement of cytotoxic effect of NK92MI-CEA cells [3] | induction of drug resistance (5-fluorouracil) in cancer cells [4] | IC50 ([4]; Homo sapiens, HCT-116, HCT116 cells, 72 hours, co-treatment sodium butyrate 0.1 mM or 5-azacytidine 1 μM, three independent experiments, read-out: IC50 of 5-fluorouracil (μM) Mean ± SD) | IC50 [5] | concentration of cCEA in the serum of mice [6] | tumor growth (FIG. 4A) ([7]; NK cells i.p. every 4 days, sodium butyrate 5 g/kg orally every day) | tumour growth / tumour size (FIG. 4B) ([7]; compared to control group) | enhancement of cytotoxic effect of NK92MI-CEA cells ([3]; HCT116 cells treated with agent, E/T ratio 10:1, 5:1, 1:1 or 0.5:1, versus control and untreated groups, FIGS. 3A, 3B)
Nc1ncn([C@@H]2O[C@H](CO)[C@@H](O)[C@H]2O)c(=O)n1 [5-azacytidine] | rendered the cancer cells resistant to the chemotherapy and radiation therapy | significantly increased CEA expression | significantly enhanced cytotoxic effect | induced drug resistance in cancer cells |  |  |  |  |  | 
O=c1[nH]cc(F)c(=O)[nH]1 [5-fluorouracil] |  |  |  |  | 4.39 ± 3.1 µM | 4.67 ± 0.55 µM |  |  |  | 
CCCC(=O)[O-].[Na+] [sodium butyrate] | rendered the cancer cells resistant to the chemotherapy and radiation therapy | significantly increased CEA expression |  | induced drug resistance in cancer cells |  |  | 990 pg/mL | obviously enhanced the anti-tumor effect of NK92MI-CEA cells | did not obviously inhibit tumour growth | significantly enhanced cytotoxic effect
